Laboratory results reported in patent US6737383B1, “Herbicidal oxadiazolidines” (priority 1999, dated 2004).

Experiments:
[1] = tested on: winter wheat; experiment: Test E winter wheat; assay type: in vivo, Triticum aestivum; conditions: Postemergence
In short: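 For postemergence, plants at the 1- to 4-leaf stage, in a 60:40 mix of sandy loam and potting mix, treated with compound formulated in a surfactant-containing non-phytotoxic solvent. Visual assessment versus untreated controls followed roughly 21–28 days in the greenhouse.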

[2] = tested on: Italian ryegrass; experiment: Test E Italian ryegrass; assay type: in vivo, Lolium multiflorum; conditions: Preemergence
[3] = tested on: green foxtail; experiment: Test E green foxtail; assay type: in vivo, Setaria viridis; conditions: Preemergence
[4] = tested on: corn; experiment: Test B pre/postemergence corn; assay type: in vivo, Zea mays
In short: (§1)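 Response is a visual 0-to-10 score relative to untreated plants, where 0 means no effect and 10 means complete control, taken twelve to sixteen days after application. Treatments went onto soil at planting and onto foliage of 1- to 4-leaf plants, using a surfactant-containing non-phytotoxic solvent.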

[5] = tested on: wild oat; experiment: Test E wild oat; assay type: in vivo, Avena fatua; conditions: Preemergence
[6] = tested on: winter wheat; experiment: Test E winter wheat; assay type: in vivo, Triticum aestivum; conditions: Preemergence
[7] = tested on: crabgrass; experiment: Test B pre/postemergence crabgrass; assay type: in vivo, Digitaria sanguinalis
In short: as §1

[8] = tested on: winter barley; experiment: Test E winter barley; assay type: in vivo, Hordeum vulgare; conditions: Preemergence
[9] = tested on: rice; experiment: Test B flood test rice; assay type: in vivo, Oryza sativa
In short: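 Plants were grown to the 2-leaf stage before treatment with test chemical, then held in a greenhouse for twelve to sixteen days. Injury was visually rated against untreated controls on a 0–10 scale, where 0 is no effect and 10 is complete control.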

[10] = tested on: velvetleaf; experiment: Test B pre/postemergence velvetleaf; assay type: in vivo, Abutilon theophrasti
In short: as §1

[11] = tested on: blackgrass; experiment: Test E blackgrass; assay type: in vivo, Alopecurus myosuroides; conditions: Preemergence
[12] = Rate 125 g/ha, 0 to 100 scale, 0 is no effect, 100 is complete control
[13] = Rate 500 g/ha, 0 to 100 scale, 0 is no effect, 100 is complete control
[14] = Rate 125 g/ha, 0 to 100 scale (0 no effect, 100 complete control)
[15] = Rate 500 g/ha, 0 to 100 scale (0 no effect, 100 complete control)
[16] = Rate 1000 g/ha, 0 to 100 scale, 0 no effect, 100 complete control
[17] = Preemergence, Rate 62 g/ha, scale of 0 to 10 where 0 is no effect and 10 is complete control
[18] = Preemergence, Rate 250 g/ha, scale of 0 to 10 where 0 is no effect and 10 is complete control
[19] = Preemergence, Rate 500 g/ha, scale of 0 to 10 where 0 is no effect and 10 is complete control
[20] = Rate 62 g/ha, Postemergence, scale 0 to 10 (0 no effect, 10 complete control)
[21] = Rate 125 g/ha, Postemergence, scale of 0 to 10 where 0 is no effect and 10 is complete control
[22] = Rate 125 g/ha, Preemergence, scale of 0 to 10 where 0 is no effect and 10 is complete control
[23] = Rate 250 g/ha, Postemergence, scale of 0 to 10 where 0 is no effect and 10 is complete control
[24] = Rate 500 g/ha, Postemergence, scale 0 to 10, 0 no effect, 10 complete control
[25] = Rate 62 g/ha, headed Pre-emergence (flood test species), scale 0 to 10 (0 no effect, 10 complete control)
[26] = Rate 125 g/ha, Pre-emergence, flood test species, scale 0 to 10 where 0 is no effect and 10 is complete control
[27] = Rate 250 g/ha, Pre-emergence, flood-test species, scale 0 to 10, 0 is no effect, 10 is complete control
[28] = Rate 500 g/ha, Pre-emergence, flood test species, scale 0 to 10 (0 no effect, 10 complete control)
[29] = Rate 250 g/ha, 0 to 100 scale, 0 is no effect, 100 is complete control
[30] = Rate 62 g/ha, 0 to 100 scale, 0 no effect, 100 complete control
[31] = Rate 250 g/ha, 0 to 100 scale, 0 no effect, 100 complete control
[32] = Pre-emergence, Rate 1000 g/ha, scale 0 to 10 (0 no effect, 10 complete control)

CC(C)N(C(=O)n1oc(=O)n(CC(C)(C)C)c1=O)c1ccc(F)cc1F [Compound 277]
Plant response rating, Wheat (winter) [1, 12]: 0 | Plant response rating, Wheat (winter) ([1]; Rate 1000 g/ha, 0 to 100 scale where 0 is no effect and 100 is complete control): 10 | Wheat (winter) plant response rating ([1]; Rate 250 g/ha, 0 to 100 scale where 0 is no effect and 100 is complete control): 0 | Plant response rating, Wheat (winter) [1, 13]: 0 | Plant response rating, I. Ryegrass [2, 14]: 65 | I. Ryegrass plant response rating (0 to 100 scale) ([2]; Rate 250 g/ha): 75 | Plant response rating, I. Ryegrass [2, 15]: 95 | Plant response rating, I. Ryegrass [2, 16]: 100 | Plant response rating, Green foxtail [3, 14]: 95 | Green foxtail plant response rating (0 to 100 scale) ([3]; Rate 250 g/ha): 100 | Plant response rating, Green foxtail [3, 15]: 100 | Plant response rating, Green foxtail [3, 16]: 100 | Corn plant response rating [4, 17]: 0 | Corn plant response rating [4, 18]: 0 | Plant response rating, Corn [4, 19]: 3 | Corn plant response rating [4, 20]: 0 | Corn plant response rating [4, 21]: 0 | Corn plant response rating [4, 22]: 0 | Plant response rating, Corn [4, 23]: 0 | Corn plant response rating [4, 24]: 0 | Plant response rating, Wild oat [5, 14]: 50 | Wild oat plant response rating (0 to 100 scale) ([5]; Rate 250 g/ha): 60 | Plant response rating, Wild oat [5, 15]: 65 | Plant response rating, Wild oat [5, 16]: 70 | Plant response rating, Wheat (winter) [6, 14]: 30 | Wheat (winter) plant response rating (0 to 100 scale) ([6]; Rate 250 g/ha): 20 | Plant response rating, Wheat (winter) [6, 15]: 10 | Plant response rating, Wheat (winter) [6, 16]: 50 | Crabgrass plant response rating [7, 17]: 4 | Crabgrass plant response rating [7, 18]: 9 | Plant response rating, Crabgrass [7, 19]: 10 | Crabgrass plant response rating [7, 20]: 1 | Crabgrass plant response rating [7, 21]: 2 | Crabgrass plant response rating [7, 22]: 4 | Plant response rating, Crabgrass [7, 23]: 5 | Crabgrass plant response rating [7, 24]: 6 | Plant response rating, Barley (winter) [8, 14]: 30 | Barley (winter) plant response rating (0 to 100 scale) ([8]; Rate 250 g/ha): 50 | Plant response rating, Barley (winter) [8, 15]: 65 | Plant response rating, Barley (winter) [8, 16]: 50 | Rice plant response rating [9, 25]: 0 | Rice plant response rating [9, 26]: 0 | Rice plant response rating [9, 27]: 0 | Rice plant response rating [9, 28]: 2 | Velvetleaf plant response rating [10, 17]: 0 | Velvetleaf plant response rating [10, 18]: 6 | Plant response rating, Velvetleaf [10, 19]: 7 | Velvetleaf plant response rating [10, 20]: 1 | Velvetleaf plant response rating [10, 21]: 1 | Velvetleaf plant response rating [10, 22]: 1 | Plant response rating, Velvetleaf [10, 23]: 1 | Velvetleaf plant response rating [10, 24]: 1 | Plant response rating, Blackgrass [11, 14]: 60 | Blackgrass plant response rating (0 to 100 scale) ([11]; Rate 250 g/ha): 100 | Plant response rating, Blackgrass [11, 15]: 70 | Plant response rating, Blackgrass [11, 16]: 100

CC(C)N(C(=O)n1oc(=O)n(C2CCOCC2)c1=O)c1ccc(F)cc1 [Compound 310]
Plant response rating, Wheat (winter) ([1]; Rate 62 g/ha, 0 to 100 scale): 75 | Plant response rating, Wheat (winter) [1, 12]: 80 | Plant response rating, Wheat (winter) [1, 29]: 80 | Plant response rating, I. Ryegrass [2, 30]: 70 | Plant response rating, I. Ryegrass [2, 14]: 70 | Plant response rating, I. Ryegrass ([2]; Rate 250 g/ha, 0 to 100 scale): 70 | Plant response rating, Green foxtail [3, 30]: 100 | Plant response rating, Green foxtail [3, 14]: 100 | Plant response rating, Green foxtail ([3]; Rate 250 g/ha, 0 to 100 scale): 100 | Corn plant response rating [4, 17]: 0 | Corn plant response rating (0 to 10 scale) ([4]; Preemergence, Rate 125 g/ha): 0 | Corn plant response rating [4, 18]: 0 | Corn plant response rating [4, 19]: 5 | Corn plant response rating [4, 20]: 0 | Corn plant response rating [4, 21]: 0 | Plant response rating, Corn [4, 23]: 0 | Corn plant response rating [4, 24]: 0 | Plant response rating, Wild oat [5, 30]: 70 | Plant response rating, Wild oat [5, 14]: 50 | Plant response rating, Wild oat ([5]; Rate 250 g/ha, 0 to 100 scale): 70 | Plant response rating, Wheat (winter) [6, 30]: 60 | Plant response rating, Wheat (winter) [6, 14]: 40 | Plant response rating, Wheat (winter) ([6]; Rate 250 g/ha, 0 to 100 scale): 70 | Crabgrass plant response rating [7, 17]: 5 | Crabgrass plant response rating (0 to 10 scale) ([7]; Preemergence, Rate 125 g/ha): 5 | Crabgrass plant response rating [7, 18]: 7 | Crabgrass plant response rating [7, 19]: 7 | Crabgrass plant response rating [7, 20]: 8 | Crabgrass plant response rating [7, 21]: 9 | Plant response rating, Crabgrass [7, 23]: 9 | Plant response rating, Barley (winter) [8, 30]: 50 | Plant response rating, Barley (winter) [8, 14]: 60 | Plant response rating, Barley (winter) [8, 31]: 70 | Rice plant response rating [9, 32]: 0 | Rice plant response rating [9, 25]: 0 | Rice plant response rating [9, 26]: 0 | Rice plant response rating [9, 27]: 0 | Rice plant response rating [9, 28]: 0 | Velvetleaf plant response rating [10, 17]: 2 | Velvetleaf plant response rating (0 to 10 scale) ([10]; Preemergence, Rate 125 g/ha): 3 | Velvetleaf plant response rating [10, 18]: 7 | Velvetleaf plant response rating [10, 19]: 8 | Velvetleaf plant response rating [10, 20]: 2 | Velvetleaf plant response rating [10, 21]: 3 | Plant response rating, Velvetleaf [10, 23]: 4 | Plant response rating, Blackgrass [11, 30]: 85 | Plant response rating, Blackgrass [11, 14]: 85 | Plant response rating, Blackgrass ([11]; Rate 250 g/ha, 0 to 100 scale): 85

COC(Cn1c(=O)on(C(=O)N(c2ccc(F)cc2)C(C)C)c1=O)OC [Compound 317]
Plant response rating, Wheat (winter) [1, 12]: 70 | Plant response rating, Wheat (winter) [1, 29]: 95 | Plant response rating, Wheat (winter) [1, 13]: 95 | Plant response rating, I. Ryegrass [2, 14]: 60 | Plant response rating, I. Ryegrass ([2]; Rate 250 g/ha, 0 to 100 scale): 85 | Plant response rating, I. Ryegrass [2, 15]: 95 | Plant response rating, Green foxtail [3, 14]: 100 | Plant response rating, Green foxtail ([3]; Rate 250 g/ha, 0 to 100 scale): 100 | Plant response rating, Green foxtail [3, 15]: 100 | Corn plant response rating [4, 17]: 0 | Corn plant response rating (0 to 10 scale) ([4]; Preemergence, Rate 125 g/ha): 2 | Corn plant response rating [4, 19]: 5 | Corn plant response rating [4, 20]: 0 | Corn plant response rating [4, 21]: 0 | Plant response rating, Corn [4, 23]: 2 | Corn plant response rating [4, 24]: 3 | Plant response rating, Wild oat [5, 14]: 60 | Plant response rating, Wild oat ([5]; Rate 250 g/ha, 0 to 100 scale): 60 | Plant response rating, Wild oat [5, 15]: 70 | Plant response rating, Wheat (winter) [6, 14]: 50 | Plant response rating, Wheat (winter) ([6]; Rate 250 g/ha, 0 to 100 scale): 50 | Plant response rating, Wheat (winter) [6, 15]: 60 | Crabgrass plant response rating [7, 17]: 6 | Crabgrass plant response rating (0 to 10 scale) ([7]; Preemergence, Rate 125 g/ha): 7 | Crabgrass plant response rating [7, 18]: 8 | Crabgrass plant response rating [7, 19]: 8 | Crabgrass plant response rating [7, 20]: 2 | Crabgrass plant response rating [7, 21]: 5 | Plant response rating, Crabgrass [7, 23]: 8 | Plant response rating, Barley (winter) [8, 14]: 40 | Plant response rating, Barley (winter) [8, 31]: 50 | Plant response rating, Barley (winter) [8, 15]: 70 | Rice plant response rating [9, 32]: 0 | Rice plant response rating [9, 26]: 0 | Rice plant response rating [9, 27]: 0 | Rice plant response rating [9, 28]: 0 | Velvetleaf plant response rating [10, 17]: 1 | Velvetleaf plant response rating (0 to 10 scale) ([10]; Preemergence, Rate 125 g/ha): 6 | Velvetleaf plant response rating [10, 18]: 6 | Velvetleaf plant response rating [10, 19]: 8 | Velvetleaf plant response rating [10, 20]: 0 | Velvetleaf plant response rating [10, 21]: 0 | Plant response rating, Velvetleaf [10, 23]: 0 | Plant response rating, Blackgrass [11, 14]: 50 | Plant response rating, Blackgrass ([11]; Rate 250 g/ha, 0 to 100 scale): 100 | Plant response rating, Blackgrass [11, 15]: 60
